Assay results reported in ChEMBL document CHEMBL2086352, “Thiazoline peptides and a tris-phenethyl urea from Didemnum molle with anti-HIV activity” (J Nat Prod, 2012).
The source made the active and inactive calls. The rule behind the calls is not given here. Starred links: 1 amine or outer side, 2 acyl side, 3 side chain; linkers in the order of their positions; H or OH if unused. Non-standard residues stand in square brackets, D forms with d. Residues, ends and D or L forms follow the SMILES beside them. *: point of attachment. X1 = O=C([C@H]1CSC([C@@H](Cc2ccccc2)N[*:1])=N1)[*:2]; Allyl(1,1-Me2) = C=CC(C)(C)*

How the values were obtained:
[1] = target: Human immunodeficiency virus type 1 integrase (Human immunodeficiency virus 1, UniProt Q7ZJM1); test: Inhibition of HIV-1 integrase by colorimetry
Human immunodeficiency virus type 1 integrase, sequence (Q7ZJM1 whole entry): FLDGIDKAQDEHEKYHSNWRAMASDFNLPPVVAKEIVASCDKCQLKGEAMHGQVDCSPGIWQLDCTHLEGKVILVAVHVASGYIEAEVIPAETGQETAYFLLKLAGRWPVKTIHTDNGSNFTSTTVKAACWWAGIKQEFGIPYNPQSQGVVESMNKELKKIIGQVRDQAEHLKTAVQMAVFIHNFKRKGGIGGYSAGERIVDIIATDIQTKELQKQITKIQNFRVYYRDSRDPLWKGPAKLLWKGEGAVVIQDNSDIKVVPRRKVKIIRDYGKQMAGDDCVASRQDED

[2] = test system: Human immunodeficiency virus; test: Antiviral activity against HIV infected in 1A2 cells assessed as cytoprotective activity after 96 hrs by MTT assay; type: functional, organism-based; details: Human immunodeficiency virus 1, 1A2, 96 h
[3] = target: Human immunodeficiency virus type 1 integrase (Human immunodeficiency virus 1) (UniProt Q7ZJM1); test: Inhibition of HIV-1 integrase at 100 ug/ml by colorimetry
Human immunodeficiency virus type 1 integrase (Human immunodeficiency virus 1), sequence (Q7ZJM1 as listed by the source): as the sequence (Q7ZJM1 whole entry) above

[4] = test system: Human immunodeficiency virus; test: Antiviral activity against HIV infected in 1A2 cells assessed as cytoprotective activity at 78 uM after 96 hrs by MTT assay; type: functional, organism-based

## CC[C@H](C)[C@@H]1NC(=O)[C@H]2CSC(=N2)[C@@H](Cc2ccccc2)NC(=O)[C@@H]2CCCN2C(=O)[C@@H]2CCCN2C(=O)[C@H](C(C)C)NC1=O [MOLLAMIDE F] (cyclo(IVPP[X1]))
[1]
  IC50: 0.039 mM
[2]
  IC50: 78 µM

## [N-]=[N+]=[N-] [SODIUM AZIDE]
[1]
  IC50: 46 mM

## O=C(NCCc1ccccc1)NCCc1ccccc1C(=O)NCCc1ccccc1 [MOLLEUREA A]
[2]
  IC50: 60 µM
[3]
  inhibition: inactive

## C=CC(C)(C)O[C@H](C)[C@@H]1NC(=O)[C@H]2CSC(=N2)[C@@H](Cc2ccccc2)NC(=O)[C@@H]2CCCN2C(=O)[C@H](CO)NC(=O)[C@H](CC(C)C)NC1=O (cyclo(LSP[X1]T(Allyl(1,1-Me2))))
[4]
  Activity: inactive
[3]
  inhibition: inactive
